Test results from the supplement of paper PMC10307832.

Key:
Assay in all cases: relative viability (nuclei count vs DMSO), 5 days (fraction); higher = more cells survive
AZ628 + Palbociclib = compound: CC1=C(C=C(C=C1)NC(=O)C2=CC(=CC=C2)C(C)(C)C#N)NC3=CC4=C(C=C3)N=CN(C4=O)C [AZ628] + CC(=O)c1c(C)c2cnc(Nc3ccc(N4CCNCC4)cn3)nc2n(C2CCCC2)c1=O [Palbociclib] (partner 0.5 µM)
Summary of the method: (§1)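 Relative viability is defined as nuclei in treated wells over nuclei in vehicle wells. Duplicate plates were run and medians reported. Lung cancer cell lines in 1536-well plates were dosed by pin tool one day after seeding, with one drug or with a fixed anchor-drug dose plus five library-drug doses (not always all listed) in √10 steps, and nuclei were counted after 5 days.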

QS11 + Decitabine = compound: C1CC2=C(C1)C=C(C=C2)OC3=NC(=C4C(=N3)N(C=N4)CC5=CC=C(C=C5)C6=CC=CC=C6)N[C@@H](CC7=CC=CC=C7)CO [QS11] + Nc1ncn([C@H]2C[C@H](O)[C@@H](CO)O2)c(=O)n1 [Decitabine] (partner 2 µM)
Summary of the method: as §1

QS11 + Luminespib = compound: C1CC2=C(C1)C=C(C=C2)OC3=NC(=C4C(=N3)N(C=N4)CC5=CC=C(C=C5)C6=CC=CC=C6)N[C@@H](CC7=CC=CC=C7)CO [QS11] + CCNC(=O)c1noc(-c2cc(C(C)C)c(O)cc2O)c1-c1ccc(CN2CCOCC2)cc1 [Luminespib] (partner 0.01 µM)
Summary of the method: as §1

QS11 + Pemetrexed = compound: C1CC2=C(C1)C=C(C=C2)OC3=NC(=C4C(=N3)N(C=N4)CC5=CC=C(C=C5)C6=CC=CC=C6)N[C@@H](CC7=CC=CC=C7)CO [QS11] + Nc1nc2[nH]cc(CCc3ccc(C(=O)N[C@@H](CCC(=O)O)C(=O)O)cc3)c2c(=O)[nH]1 [Pemetrexed] (partner 0.2 µM)
Summary of the method: as §1

Darinaparsin + OSI-027 = compound: C[As](C)SC[C@H](NC(=O)CC[C@H](N)C(=O)O)C(=O)NCC(=O)O [Darinaparsin] + COc1cccc2cc(-c3nc([C@H]4CC[C@H](C(=O)O)CC4)n4ncnc(N)c34)[nH]c12 [OSI-027] (partner 0.5 µM)
Summary of the method: as §1

Cell Line: LCLC-97TM1
- relative viability (AZ628 + Palbociclib; first compound 0.08 µM): 0.231
- relative viability (AZ628 + Palbociclib; first compound 0.253 µM): 0.217
- relative viability (AZ628 + Palbociclib; first compound 0.8 µM): 0.193
- relative viability (AZ628 + Palbociclib; first compound 2.53 µM): 0.182
- relative viability (AZ628 + Palbociclib; first compound 8 µM): 0.113
- relative viability (QS11 + Decitabine; first compound 0.253 µM): 0.213
- relative viability (QS11 + Decitabine; first compound 2.53 µM): 0.257
- relative viability (QS11 + Decitabine; first compound 8 µM): 0.219
- relative viability (QS11 + Luminespib; first compound 0.08 µM): 0.709
- relative viability (QS11 + Luminespib; first compound 0.253 µM): 0.907
- relative viability (QS11 + Luminespib; first compound 2.53 µM): 0.768
- relative viability (QS11 + Luminespib; first compound 8 µM): 0.69
- relative viability (QS11 + Pemetrexed; first compound 0.253 µM): 0.167
- relative viability (QS11 + Pemetrexed; first compound 2.53 µM): 0.182
- relative viability (QS11 + Pemetrexed; first compound 8 µM): 0.202
- relative viability (Darinaparsin + OSI-027; first compound 0.08 µM): 0.654
- relative viability (Darinaparsin + OSI-027; first compound 0.8 µM): 0.468
- relative viability (Darinaparsin + OSI-027; first compound 2.53 µM): 0.514
- relative viability (Darinaparsin + OSI-027; first compound 8 µM): 0.615
